# Assay results from patent US20040175763A1, “Crohn's disease antibody-binding peptide and method of examining crohn's disease” (priority 2001, published 2004).
# No end group written: not given here.
# B1: MAP peptide of CDP3-10 (peptide)
# peptide: AEGELRQSDAQYQM
# modifications: also: MAP: 8 copies as branches on a lysine core
# B2: MAP peptide of CDP3-13 (peptide)
# peptide: AEGELRQSDGQYAM
# modifications: also: MAP: 8 copies as branches on a lysine core
# B3: MAP peptide of CDP3-9 (peptide)
# peptide: AEGELRQSAGQYQM
# modifications: also: MAP: 8 copies as branches on a lysine core
# B4: MAP peptide of CDP3-11 (peptide)
# peptide: AEGELRQSDGAYQM
# modifications: also: MAP: 8 copies as branches on a lysine core
# Key:
# [1] = tested on: Crohn's disease antibody (serum antibodies); test: MAP antigen-ELISA of Z300 peptide (Example 6(4)); assay type: binding, human
# Method: Therefore, in order to confirm that human nuclear protein (HZF300) is a protein simulated or mimicked by CDP3 peptide, the peptide (Z300 peptide) having the amino acid sequence of the 126-138 amino acid region of HZF300 was prepared in the form of a MAP peptide and the MAP antigen ELISA was carried out using 20 Crohn's disease patient serum samples, 20 ulcerative colitis patient serum samples, and 20 healthy volunteer serum samples.
# First, each human serum was diluted 101-fold with the sample diluent (described hereinbefore) and 100 μL/well of the solution was added to the MAP plate prepared by immobilizing the said MAP peptide. Then, the procedure of the secondary reaction and subsequent operation described in Example 6(2) was followed to investigate the reactivity of the MAP peptide to various kinds of serum antibodies.
# [2] = tested on: Crohn's disease antibody; test: Reaction inhibition test with one amino acid-substituted MAP peptides on CDP3 MAP plate (Example 6(2)); assay type: binding, human; details: inhibitor MAP peptide 100 μg/mL
# Method: Referring to the amino acid sequence of CDP peptide, in order to determine the sequence necessary for the specific reactivity to Crohn's disease antibody, the following reaction inhibition test was performed using each of the one amino acid-substituted MAP peptides prepared as above as the reaction inhibitor.
# More particularly, using the MAP plate prepared by immobilizing the MAP peptide of CDP3 (see Example 2(1)) as the antigen plate, the test was performed by 3 reaction steps. In the primary reaction, the Crohn's disease patient serum was diluted 100-fold with a sample diluent containing the one amino acid-substituted MAP peptide in a concentration of 100 μg/mL (0.1 M Tris-buffer containing 0.5 M sodium chloride, 1.5% casein, 2% normal goat serum and 0.2% Tween 20) and reacted at 25° C. for one hour. In the secondary reaction, 100 μL/well of the primary reaction mixture was added to the plate and reacted at 25° C. for one hour, after which the plate was washed 3 times. In the tertiary reaction, 100 μL/well of HRP-labeled anti-human IgG (Fc)-specific antibody diluted 5,000-fold in an enzyme-labeled antibody diluent (Tris buffer containing 0.14 M sodium chloride, 0.5% BAS, 5% normal goat serum and 0.05% Tween 20) was added to the plate, and reacted at 25° C. for 1 hour, followed by 3 rounds of washing. Detection was performed as in Example 2(1) to measure the reaction-inhibiting activity of the one amino acid-substituted MAP peptide.
# [3] = tested on: Crohn's disease patient serum antibody; test: Phage ELISA of CD-binding peptide display phage clones with serum samples; design: species or system human; details: 20 Crohn's disease, 20 ulcerative colitis, 20 healthy volunteer serum samples
# Method: Using the monoclonal CD-binding peptide display phage obtained as above, phage ELISA was carried out with the same healthy volunteer serum pool and Crohn's disease patient serum pool as used in the above biopanning (cf. (i)).
# In the ELISA, an anti-phage antibody (Pharmacia) was immobilized on a 96-well microtiter plate in the first place. Specifically, this immobilization was carried out by adding an anti-phage antibody (Pharmacia) solution prepared in a 1 μg/ml concentration with (D)-PBS, to the plate, 100 μl per well. The plate was left sitting at 4° C. overnight and then washed, and after addition of 300 μl of blocking solution ((D)-PBS containing 1% BSA and 5% sorbitol), further left sitting at 4° C. overnight.
# The primary reaction was carried out as follows. Thus, 10 μl of the phage solution in (ii) was added to 90 μl of phage ELISA buffer ((D)-PBS containing 1% BSA, 0.05% Tween 20 and 10% normal goat serum), the mixture was added to each well coated with said anti-phage antibody, and the reaction was conducted at 37° C. for 1 hour. After completion of the primary reaction, the plate was washed 4 times and the secondary reaction was carried out. The secondary reaction was performed by adding the mixture containing 1 μl of serum (healthy volunteer serum or Crohn's disease patient serum) and 100 μl of phage ELISA buffer, to each well, and allowing the reaction to proceed at 37° C. for 1 hour. After completion of the secondary reaction, the plate was washed 4 times and the tertiary reaction was carried out. The tertiary reaction was conducted by adding HRP (horseradish peroxidase)-labeled anti-human IgG (Fc)-specific antibody, diluted 40,000-fold in phage ELISA buffer (20 ng/ml) in advance, to the plate, 100 μl per well, and allowing the reaction to proceed at 37° C. for one hour. After completion of the tertiary reaction, the plate was washed and a color development reaction was carried out. The color development was conducted by adding TMB (3,3′,5,5′-tetramethylbenzidine) solution to the plate, allowing the reaction to proceed at room temperature for 10 minutes, and stopping the reaction with a stopper (1N sulfuric acid). The plate after reaction stopping was measured for absorbance (OD 450 nm) with a plate reader to evaluate the reactivity with the serum antibody.
# For the 5 clones thus selected, the reactivity (ELISA) with the respective serum samples (Crohn's disease patient serum, ulcerative colitis patient serum, and healthy volunteer serum) was evaluated.
# [4] = tested on: Crohn's disease antibody (serum IgG); test: MAP peptide ELISA of CDP-1a, CDP-5a and VATE-201 (Example 4); assay type: binding, human; details: 20 Crohn's disease, 20 ulcerative colitis, 20 healthy volunteer serum samples
# From the text: Therefore, the following peptides (CDP-1a peptide, CDP-5a peptide, VATE-201 peptide) were respectively synthesized in the MAP form (multiple antigenic peptides) by the same procedure as described in Example 1(3) (FIG. 9), and in accordance with the protocol of Example 2(1), the reactivity of each MAP peptide to various serum samples (Crohn's disease patient sera, ulcerative colitis patient sera and healthy volunteer sera) was investigated by ELISA.
# As test sera, 20 Crohn's disease patient serum samples were used and, as control sera, 20 ulcerative colitis serum samples and 20 healthy volunteer serum samples were used.
# [5] = tested on: Crohn's disease antibody (serum antibodies); test: MAP antigen-ELISA of TO3965 peptide (Example 7(4)); assay type: binding, human; details: for reactions with ulcerative colitis patient sera and healthy volunteer sera: 20 ulcerative colitis, 20 healthy volunteer serum samples
# Method: At this junction, in order to endorse the assumption that rice allergen proteins are proteins simulated or mimicked by CDP4 peptide, a peptide (TO3965 peptide) having an amino acid sequence corresponding to the 99-111 amino acid region of Rice seed allergen RA14 (FIG. 16) was prepared in the form of a MAP peptide and the MAP antigen-ELISA was performed using 20 Crohn's disease patient serum samples, 20 ulcerative colitis patient serum samples, and 20 healthy volunteer serum samples.
# Except that a MAP antigen plate prepared by immobilizing the MAP peptide of TO3965 on the plate was used as the antigen plate, the MAP antigen-ELISA was carried out in otherwise the same manner as in Example 6(4).
# [6] = tested on: Crohn's disease antibody; test: Test for inhibition of the antigen-antibody reaction between CDP-1a peptide and Crohn's disease antibody (Example 5); assay type: binding, human; details: sera No. 8, No. 9, No. 14; reaction inhibitor 100 μg/ml
# Method: To confirm the reactivity of VATE-201 obtained in Example 4, a test for inhibition of the antigen-antibody reaction between CDP-1a peptide and Crohn's disease antibody was carried out using VATE-201 peptide.
# More particularly, the MAP plate prepared by immobilizing CDP-1a MAP peptide was used as the antigen plate (see Example 2(1)). On the other hand, 1 μL of each serum sample was added to 100 μL of a casein solution ((D)-PBS containing 0.1% casein and 1% Triton X-100) containing the MAP peptide of VATE-201 (reaction inhibitor) at a concentration of 100 μg/ml and the reaction was carried out at 37° C. for one hour. The whole amount of the reaction mixture thus obtained was added to the above MAP plate and ELISA was performed in the same manner as in Example 2(1). As a comparative experiment, using the MAP peptide of CDP-1a in lieu of the MAP peptide of VATE-201 as said reaction inhibitor, ELISA was carried out in otherwise the same manner.
# [7] = tested on: Crohn's disease antibody; test: Test for inhibition of the antigen-antibody reaction between CDP4 peptide and Crohn's disease antibody using TO3965 peptide (Example 7(5)); assay type: binding, human; details: sera Nos. 3, 6, 15, 17 and 20
# Method: To confirm the reactivity of TO3965 peptide to Crohn's disease antibody, a test for inhibition of the antigen-antibody reaction between CDP4 peptide and Crohn's disease antibody was performed using TO3965 peptide as a reaction inhibitor as in Example 6(5).
# [8] = tested on: Crohn's disease antibody; test: Test for inhibition of the antigen-antibody reaction between CDP3 peptide and Crohn's disease antibody using Z300 peptide (Example 6(5)); assay type: binding, human; details: sera No. 2, No. 7, No. 8; inhibitor 100 μg/ml
# Method: To verify the reactivity of Z300 peptide to Crohn's disease antibodies, a test for inhibition of the antigen-antibody reaction between CDP3 peptide and Crohn's disease antibody was performed using Z300 peptide.
# More particularly, the MAP plate prepared by immobilizing the MAP peptide of CDP3 on a plate (Example 2(1)) was used. To 100 μL of the sample diluent containing 100 μg/ml of Z300 MAP peptide (reaction inhibitor) was added 1 μL of the serum sample and the reaction was carried out at 25° C. for one hour. The whole amount of this reaction mixture was added to the plate and ELISA was performed in the same manner as in Example 6(2). As a comparative experiment, ELISA was similarly performed using the MAP peptide of CDP3, in lieu of the MAP peptide of Z300, as said reaction inhibitor.
# [9] = target: Crohn's disease patient serum No. 2 (serum antibody); test: inhibition ELISA; serum pre-incubated with 100 ug/mL MAP peptide, then CDP3 MAP plate; grade of reaction-inhibiting activity
# [10] = target: Crohn's disease patient serum No. 8 (serum antibody); test: as above
# [11] = target: Crohn's disease patient serum No. 7 (serum antibody); test: as above
molecule,measurement,setting,value
A E G E L R Q S D G Q Y Q M (AEGELRQSDGQYQM) [CDP3],reactivity of Crohn's disease patient sera to the peptide,"[1]; Crohn's disease patient serum No. 2, No. 7 and No. 8",strong reactivity
same,"reaction-inhibiting activity, Patient serum sample No. 2",[2],+++ (+++: reaction-inhibiting activity = 70%)
same,"reaction-inhibiting activity, Patient serum sample No. 7",[2],+++ (+++: reaction-inhibiting activity = 70%)
same,"reaction-inhibiting activity, Patient serum sample No. 8",[2],+++ (+++: reaction-inhibiting activity = 70%)
AEGEL GLLAQQMDY ADPA [CD-1],specificity to Crohn's disease patient serum (phage ELISA reactivity),[3],high specificity to Crohn's disease patient serum
AEGEL RLVGQQVMQ GDPA [CD-5],specificity to Crohn's disease patient serum (phage ELISA reactivity),[3],high specificity to Crohn's disease patient serum
AEGEL RQSDGQYQM GDPA [CD-3],specificity to Crohn's disease patient serum (phage ELISA reactivity),[3],high specificity to Crohn's disease patient serum
AEGEL YRWLPPSSA GDPA [CD-2],specificity to Crohn's disease patient serum (phage ELISA reactivity),[3],high specificity to Crohn's disease patient serum
AEGELGLLAQQMDYADP [CDP-1a],ELISA reactivity to serum samples,[4],ELISA reactivities mutually alike
AEGELRLVGQQVMQGDP [CDP-5a],ELISA reactivity to serum samples,[4],ELISA reactivities mutually alike
"CDP4: equivalent of CD4 peptide, SEQ ID NO:34 (AEGELGGIYQDLVS; Phage Library)",reactions with ulcerative colitis patient sera and healthy volunteer sera,[5],did not show definite reactions
same,reactivity of Crohn's disease patient sera to the peptide,"[5]; Crohn's disease patient serum Nos. 3, 6, 15, 17 and 20",strong reactivity
RLDLIAQQMMPEVR [VATE-201],inhibition of the reactivity of Crohn's disease serum samples with the CDP-1a MAP plate,[6],invariably inhibited the reactivity
same,ELISA reactivity to serum samples,[4],ELISA reactivities mutually alike
"TO3965: peptide with the amino acid sequence of the 99-111 amino acid region of Rice seed allergen RA14, SEQ ID NO:42 (HMVGGIYRELGAT; Rice; Rice Seel Allergen RA14)",reactions with ulcerative colitis patient sera and healthy volunteer sera,[5],did not show definite reactions
same,inhibition of the reactivity of Crohn's disease patient serum samples to the CDP4 MAP plate,[7],inhibition everything of the reactivity
"Z300: peptide having the amino acid sequence of the 126-138 amino acid region of HZF300, SEQ ID NO:31 (LVCQGDGQLQRFL; Kruppel-like Zinc Finger Protein 300; listed as Homo sapiens)",inhibition of the reactivity of Crohn's disease patient sera to the CDP3 MAP plate,[8],inhibited the reactivity of all Crohn's disease patient sera
same,reactions with ulcerative colitis patient sera and healthy volunteer sera,"[1]; 20 ulcerative colitis, 20 healthy volunteer serum samples",did not show definite reactions
B1,reaction-inhibiting activity,[9],30 to 50%
B2,reaction-inhibiting activity,[10],50 to 70%
same,reaction-inhibiting activity,[9],30 to 50%
B3,reaction-inhibiting activity,[11],30 to 50%
B4,reaction-inhibiting activity,[11],30 to 50%
